Legend:
[1] = system: Ras processing in COS cells; assay: Cell-based assay: COS cells activity, inhibition of Ras processing
Procedure: 2. Cell-based assay. COS IC50 values refer to the COS cells activity inhibition of Ras processing, are determined by the methods disclosed in […] or WO 95/10516.

[2] = target: T1, partially purified rat brain farnesyl protein transferase (FPT) (Rattus norvegicus, UniProt Q02293+Q04631); assay: In vitro enzyme assay: inhibition of Ras-CVLS farnesylation by farnesyl protein transferase (H-ras FPT); format: biochemical
T1 construct: partially purified rat brain farnesyl protein transferase (FPT); from tissue; host or cells: rat brain
Procedure: 1. In vitro enzyme assays: FPT IC50 (inhibition of farnesyl protein transferqase, in vitro enzyme assay) are determined by the methods disclosed in […] or WO 95/10516.

| Structure (SMILES) | IC50 [1] [nM] | IC50 [2] [nM] | melting point [°C] |
| --- | --- | --- | --- |
| CS(=O)(=O)N1CCC(C2c3ncc(Br)cc3CCc3cc(Cl)cc(Cl)c32)CC1 (single isomer, unassigned; (+)) [Example 1, (+)-4-(3-Bromo-8,10-dichloro-6,11-dihydro-5H-benzo[5,6]cyclohepta[1,2-b]pyridin-11-yl)-1-(methylsulfonyl)pipiridine] | 420 | 8 | 160 to 163 |
| CN(C)S(=O)(=O)N1CCC(C2c3ncc(Br)cc3CCc3cc(Cl)cc(Cl)c32)CC1 (single isomer, unassigned; (+)) [Example 2, (+)-4-(3-Bromo-8,10-dichloro-6,11-dihydro-5H-benzo[5,6,]cyclohepta[1,2-b]pyridin-11-yl)-N-N-dimethyl-1-piperidinesulfonamide] | – | 164 | 202 to 203 |
| NS(=O)(=O)N1CCC(C2c3ncc(Br)cc3CCc3cc(Cl)cc(Cl)c32)CC1 (single isomer, unassigned; (+)) [Example 3, (+)-4-(3-Bromo-8,10-dichloro-6,11-dihydro-5H-benzo[5,6]cyclohepta[1,2-b]pyridin-11-yl)-1-(aminosulfonyl)piperidine] | – | 26 | 133 to 134 |
| CS(=O)(=O)N1CCC(C2c3ncc(Br)cc3CCc3cc(Cl)cc(Br)c32)CC1 (single isomer, unassigned; (+)) [Example 4, (+)-4-(3,10-Dibromo-8-chloro-11-dihydro-5H-benzo[5,6]cyclohepta[1,2-b]pyridin-11-yl)-1-(methylsulfonyl)pipiridine] | 15 | 7 | 216 to 217 |
| CCS(=O)(=O)N1CCC(C2c3ncc(Br)cc3CCc3cc(Cl)cc(Br)c32)CC1 (single isomer, unassigned; (+)) [Example 5, (+)-4-(3,10-Dibromo-8-chloro-11-dihydro-5H-benzo[5,6]cyclohepta[1,2-b]pyridin-11-yl)-1-(ethylsulfonyl)pipiridine] | – | 15.4 | 202 to 203 |
| CCCS(=O)(=O)N1CCC(C2c3ncc(Br)cc3CCc3cc(Cl)cc(Br)c32)CC1 (single isomer, unassigned; (+)) [Example 6, (+)-4-(3,10-Dibromo-8-chloro-11-dihydro-5H-benzo[5,6]cyclohepta[1,2-b]pyridin-11-yl)-1-(propylsulfonyl)pipiridine] | – | 32 | 97 to 98 |
| CC(C)S(=O)(=O)N1CCC(C2c3ncc(Br)cc3CCc3cc(Cl)cc(Br)c32)CC1 (single isomer, unassigned; (+)) [Example 7, (+)-4-(3,10-Dibromo-8-chloro-11-dihydro-5H-benzo[5,6]cyclohepta[1,2-b]pyridin-11-yl)-1-(isopropylsulfonyl)pipiridine] | – | 110 | 203 to 205 |
| CCCCS(=O)(=O)N1CCC(C2c3ncc(Br)cc3CCc3cc(Cl)cc(Br)c32)CC1 (single isomer, unassigned; (+)) [Example 8, (+)-4-(3,10-Dibromo-8-chloro-11-dihydro-5H-benzo[5,6]cyclohepta[1,2-b]pyridin-11-yl)-1-(butylsulfonyl)pipiridine] | – | 320 | 73 to 74 |
| O=S(=O)(N1CCC(C2c3ncc(Br)cc3CCc3cc(Cl)cc(Br)c32)CC1)C(F)(F)F (single isomer, unassigned; (+)) [Example 9, (+)-4-(3,10-Dibromo-8-chloro-11-dihydro-5H-benzo[5,6]cyclohepta[1,2-b]pyridin-11-yl)-1-(trifluoromethylsulfonyl)pipiridine] | – | 34 | 111 to 112 |
| O=S(=O)(CC(F)(F)F)N1CCC(C2c3ncc(Br)cc3CCc3cc(Cl)cc(Br)c32)CC1 (single isomer, unassigned; (+)) [Example 10, (+)-4-(3,10-Dibromo-8-chloro-11-dihydro-5H-benzo[5,6]cyclohepta[1,2-b]pyridin-11-yl)-1-(trifluoroethylsulfonyl)pipiridine] | – | 89 | 174 to 175 |
| C=CS(=O)(=O)N1CCC(C2c3ncc(Br)cc3CCc3cc(Cl)cc(Br)c32)CC1 (single isomer, unassigned; (+)) [Example 11, (+)-4-(3,10-Dibromo-8-chloro-11-dihydro-5H-benzo[5,6]cyclohepta[1,2-b]pyridin-11-yl)-1-(vinylsulfonyl)pipiridine] | – | 32 | – |
| O=S(=O)(c1ccccc1)N1CCC([C@H]2c3ncc(Br)cc3CCc3cc(Cl)cc(Br)c32)CC1 [Example 12, (+)-4-(3,10-Dibromo-8-chloro-6,11-dihydro-5H-benzo[5,6]cyclohepta[1,2-b]pyridin-11(R)-yl)-1-(phenylsulfonyl)pipiridine] | – | 179 | – |
| Cn1cnc(S(=O)(=O)N2CCC([C@H]3c4ncc(Br)cc4CCc4cc(Cl)cc(Br)c43)CC2)c1 [Example 13, (+)-4-(3,10-Dibromo-8-chloro-6,11-dihydro-5H-benzo[5,6]cyclohepta[1,2-b]pyridin-11(R)-yl)-1-[(1-methyl-1H-imidazol-4-yl)sulfonyl]pipiridine] | – | 85 | – |
| O=S(=O)(c1ccc(-c2ccon2)s1)N1CCC([C@H]2c3ncc(Br)cc3CCc3cc(Cl)cc(Br)c32)CC1 [Example 14, (+)-4-(3,10-Dibromo-8-chloro-6,11-dihydro-5H-benzo[5,6]cyclohepta[1,2-b]pyridin-11(R)-yl)-1-[(5-(3-isoxazolyl)-2-thienyl]sulfonyl]pipiridine] | – | 276 | – |

From patent US6426352B1, “Sulfonamide inhibitors of farnesyl-protein transferase” (Schering Corporation, priority 1997, dated 2002)
